# According to paper PMC12083526, “Capturing structural intermediates in an animal-like cryptochrome photoreceptor by time-resolved crystallography” (Science Advances, 2025):
# Assays:
# [1] = target: T1, CraCRYΔCTE (CraCRY; animal-like cryptochrome, aCRY) (Chlamydomonas reinhardtii, UniProt A8J8W0, E384Q); experiment: steady-state photoreduction, UV/Vis absorption; format: binding; conditions: white light on ice, aerobic, no external reductant; 20 mM phosphate, 500 mM NaCl, 10% glycerol, pH 5.5-8.5
# T1 construct: gene CHLRE_06g278251v5; C-terminal extension E496-E595 replaced by a His tag; pET28a-based; E. coli BL21(DE3); PHR domain plus helix α22
# [2] = target: T2, CraCRYΔCTE (CraCRY; animal-like cryptochrome, aCRY) (Chlamydomonas reinhardtii, UniProt A8J8W0); experiment: serial femtosecond crystallography (room temperature); conditions: crystals reduced with 50 mM DTT and white light, anaerobic; FAD-binding site
# T2 construct: gene CHLRE_06g278251v5; C-terminal extension E496-E595 replaced by a His tag; pET28a-based; E. coli BL21(DE3); PHR domain plus helix α22
# T2 sequence (A8J8W0 entry or part of it, stated change not applied): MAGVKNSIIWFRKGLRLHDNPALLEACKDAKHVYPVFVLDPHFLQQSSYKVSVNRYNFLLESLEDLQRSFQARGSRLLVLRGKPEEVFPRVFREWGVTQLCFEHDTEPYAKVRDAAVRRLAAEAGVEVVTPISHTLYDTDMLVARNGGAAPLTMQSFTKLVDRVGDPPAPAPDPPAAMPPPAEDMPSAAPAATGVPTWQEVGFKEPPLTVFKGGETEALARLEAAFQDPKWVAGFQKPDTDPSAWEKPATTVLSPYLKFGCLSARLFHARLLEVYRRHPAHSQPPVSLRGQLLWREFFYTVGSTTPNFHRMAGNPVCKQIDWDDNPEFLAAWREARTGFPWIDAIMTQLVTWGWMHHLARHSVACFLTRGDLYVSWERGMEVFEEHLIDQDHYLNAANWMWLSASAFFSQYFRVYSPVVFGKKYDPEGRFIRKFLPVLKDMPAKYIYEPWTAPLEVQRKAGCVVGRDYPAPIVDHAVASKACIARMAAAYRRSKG
# T1 sequence (A8J8W0 entry or part of it E384Q): as the sequence (A8J8W0 entry or part of it, stated change not applied) above, with E384Q counted along it
Compound,"steady-state photoreduction, UV/Vis absorption [1]",serial femtosecond crystallography (room temperature) [2]
"Cc1cc2nc3c(=O)[nH]c(=O)nc-3n(C[C@H](O)[C@H](O)[C@H](O)COP(=O)(O)OP(=O)(O)OC[C@H]3O[C@@H](n4cnc5c(N)ncnc54)[C@H](O)[C@@H]3O)c2cc1C [FADox, flavin adenine dinucleotide]",E384Q is inefficient to generate the neutral radical FADH^• at physiological pH,–
Cc1cc2c(cc1C)N(C[C@H](O)[C@H](O)[C@H](O)COP(=O)(O)OP(=O)(O)OC[C@H]1O[C@@H](n3cnc4c(N)ncnc43)[C@H](O)[C@@H]1O)c1[nH]c(=O)[nH]c(=O)c1N2 [FADH^−],–,CraCRY structures in FADox and FADH^− states at room temperature are almost identical
